*1 amine or outer side, *2 acyl side, *3 side chain or, on linkers, in order; H or OH if unused. Where a SMILES comes first, the peptide text is derived from it. Bridges are numbered along the chain shown (N, C = ends). [ ]: non-standard residue; d: D form. The star is where a group is joined. X1 = COc1cc2cc(c1Cl)N(C)C(=O)C[C@H](OC(=O)[C@H](C)N(C)C(=O)CCSSC(C)CCC(=O)*)[C@]1(C)O[C@H]1[C@H](C)[C@@H]1C[C@@](O)(NC(=O)O1)[C@H](OC)/C=C/C=C(\C)C2; 1Nal = N[C@@H](Cc1cccc2ccccc12)C(=O)O; TBMB = c1c(C[*:1])cc(C[*:3])cc1C[*:2]; Tle = CC(C)(C)[C@H](N)C(=O)O; βAla = NCCC(=O)O; Sar = CNCC(=O)O
System: RPMI2650 xenograft
Assay: In vivo efficacy of BT1718 in RPMI2650 xenograft
Set-up: species or system Mus Musculus; key to Best response at 10 mg/kg: CR complete response; PR partial response
Procedure: The objective of this study was to evaluate the in vivo anti-tumor efficacy of BT1718in treatment of HT1080, NCI-H292, NCI-H1975, MDA-MB-231, HCC1806, RPMI2650, HCT-15, HT-29 and SNU-16 xenograft in BALB/c nude mice.
The HT1080, NCI-H292, NCI-H1975, MDA-MB-231, HCC1806, RPMI2650, HCT-15, HT-29 and SNU-16 tumor cells were maintained in vitro as a monolayer culture in medium supplemented with 10% heat inactivated fetal bovine serum at 37° C. in an […]. The tumor cells will be routinely subcultured twice weekly by trypsin-EDTA treatment. The cells growing in an exponential growth phase will be harvested and counted for tumor inoculation.
Mouse was inoculated subcutaneously at the right flank with tumor cells for tumor development. The animals were randomized and treatment was started when the average tumor reaches certain volume for the efficacy study, the inoculating cell amounts and starting tumor size were shown as below in Table 9. The test article administration and the animal numbers in each group were shown in the experimental design in Table 10.
All the procedures related to animal handling, care and the treatment in the study were performed according to the guidelines of the Association for Assessment and Accreditation of Laboratory Animal Care (AAALAC). At the time of routine monitoring, the animals were daily checked for any effects of tumor growth and treatments on normal behavior such as mobility, food and water consumption (by looking only), body weight gain/loss (body weights were measured every day), eye/hair matting and any other abnormal effect as stated in the protocol. Death and observed clinical signs were recorded on the basis of the numbers of animals within each subset.
The major endpoint was to see if the tumor growth could be delayed or mice could be cured. Tumor size was measured three times weekly in two dimensions using a caliper, and the volume was expressed in mm^3 using the formula: V=0.5 a×b^2 where a and b are the long and short diameters of the tumor, respectively. The tumor size was then used for calculations of T/C value. The T/C value (in percent) is an indication of antitumor effectiveness; T and C are the mean volumes of the treated and control groups, respectively, on a given day.
TGI was calculated for each group using the formula: TGI (%)=[1−(Ti−T0)/(Vi−V0)]×100; Ti is the average tumor volume of a treatment group on a given day, T0 is the average tumor volume of the treatment group on the day of treatment start, Vi is the average tumor volume of the vehicle control group on the same day with Ti, and V0 is the average tumor volume of the vehicle group on the day of treatment start.
Summary statistics, including mean and the standard error of the mean (SEM), are provided for the tumor volume of each group at each time point.
Statistical analysis of difference in tumor volume among the groups was conducted on the data obtained at the best therapeutic time point after the final dose.
A one-way ANOVA was performed to compare tumor volume among groups, and when a significant F-statistics (a ratio of treatment variance to the error variance) was obtained, comparisons between groups were carried out with Games-Howell test. All data were analyzed using Prism. P<0.05 was considered to be statistically significant.

## COc1cc2cc(c1Cl)N(C)C(=O)C[C@H](OC(=O)[C@H](C)N(C)C(=O)CCSSC(C)CCC(=O)NCCC(=O)N(C)CC(=O)N(C)CC(=O)N(C)CC(=O)N(C)CC(=O)N(C)CC(=O)N(C)CC(=O)N(C)CC(=O)N(C)CC(=O)N(C)CC(=O)N(C)CC(=O)N[C@@H](C)C(=O)N[C@H]1CSCc3cc4cc(c3)CSC[C@H](NC(=O)[C@@H](C)NC(=O)[C@H](Cc3cccc5ccccc35)NC(=O)[C@H](CCC(=O)O)NC(=O)[C@H](CC(N)=O)NC(=O)[C@@H](C)NC1=O)C(=O)N[C@@H](CCC(=O)O)C(=O)N[C@@H](CC(=O)O)C(=O)N[C@@H](Cc1ccccc1)C(=O)N[C@@H](Cc1ccc(O)cc1)C(=O)N[C@@H](CC(=O)O)C(=O)N[C@@H](C(C)(C)C)C(=O)N[C@H](C(N)=O)CSC4)[C@]1(C)O[C@H]1[C@H](C)[C@@H]1C[C@@](O)(NC(=O)O1)[C@H](OC)/C=C/C=C(\C)C2 (stereo partly drawn) [BT1718] ({X1-βAla}-[Sar][Sar][Sar][Sar][Sar][Sar][Sar][Sar][Sar][Sar]AC[dA]NE[1Nal][dA]CEDFYD[Tle]C-NH2; linker 12-18-25 via TBMB (inferred))
10 mg/kg biw
  tumor response: significant tumor inhibition effect, but didn't cause tumor regression
1 mpk biw, day 0
  Body Weight: 21.8 ± 0.5 g
  Tumor Volume: 146 ± 5 mm^3
1 mpk biw, day 2
  Body Weight: 22.1 ± 0.6 g
  Tumor Volume: 159 ± 9 mm^3
1 mpk biw, day 4
  Body Weight: 22.1 ± 0.7 g
  Tumor Volume: 213 ± 23 mm^3
1 mpk biw, day 7
  Body Weight: 22.6 ± 0.5 g
  Tumor Volume: 362 ± 34 mm^3
1 mpk biw, day 9
  Body Weight: 22.8 ± 0.5 g
  Tumor Volume: 470 ± 68 mm^3
1 mpk biw, day 11
  Body Weight: 22.6 ± 0.6 g
  Tumor Volume: 614 ± 96 mm^3
1 mpk biw, day 14
  Body Weight: 23.1 ± 0.8 g
  Tumor Volume: 833 ± 126 mm^3
3 mpk biw, day 0
  Body Weight: 22.1 ± 0.7 g
  Tumor Volume: 147 ± 11 mm^3
3 mpk biw, day 2
  Body Weight: 21.9 ± 0.8 g
  Tumor Volume: 164 ± 20 mm^3
3 mpk biw, day 4
  Body Weight: 21.4 ± 0.6 g
  Tumor Volume: 220 ± 23 mm^3
3 mpk biw, day 7
  Body Weight: 21.9 ± 0.8 g
  Tumor Volume: 365 ± 10 mm^3
3 mpk biw, day 9
  Body Weight: 21.4 ± 0.7 g
  Tumor Volume: 447 ± 18 mm^3
3 mpk biw, day 11
  Body Weight: 20.7 ± 0.8 g
  Tumor Volume: 576 ± 19 mm^3
3 mpk biw, day 14
  Body Weight: 21.0 ± 0.7 g
  Tumor Volume: 724 ± 28 mm^3
10 mpk biw, day 0
  Body Weight: 22.0 ± 0.3 g
  Tumor Volume: 147 ± 7 mm^3
10 mpk biw, day 2
  Body Weight: 21.2 ± 0.1 g
  Tumor Volume: 151 ± 10 mm^3
10 mpk biw, day 4
  Body Weight: 20.6 ± 0.5 g
  Tumor Volume: 190 ± 25 mm^3
10 mpk biw, day 7
  Body Weight: 21.1 ± 0.4 g
  Tumor Volume: 198 ± 38 mm^3
10 mpk biw, day 9
  Body Weight: 19.9 ± 0.3 g
  Tumor Volume: 165 ± 42 mm^3
10 mpk biw, day 11
  Body Weight: 19.2 ± 0.3 g
  Tumor Volume: 155 ± 54 mm^3
10 mpk biw, day 14
  Body Weight: 19.6 ± 0.7 g
  Tumor Volume: 131 ± 49 mm^3
RPMI2650, 10 mg/kg
  Best response at 10 mg/kg: PR
RPMI2650, 1 mpk, biw, day 14
  TGI: 4.5%
  Tumor Volume: 833 ± 126 mm^3
RPMI2650, 3 mpk, biw, day 14
  TGI: 19.8%
  Tumor Volume: 724 ± 28 mm^3
RPMI2650, 10 mpk, biw, day 14
  TGI: 102.1%
  Tumor Volume: 131 ± 49 mm^3
RPMI2650, dose leading to tumor-stasis
  Minimally Effective Dose IV BIW: 10 mg/kg

From patent US10441663B2, “Methods for treating cancer” (Bicycle Therapeutics Limited, priority 2016, dated 2019)
